Source: patent US20230123334A1, “AMINO LIPID COMPOUND, PREPARATION METHOD THEREFOR, AND APPLICATION THEREOF” (SHENZHEN SHENXIN BIOTECHNOLOGY CO., LTD., priority 2020, published 2023)

What was measured:
HEK293 cells [1] = assay: Preliminary screening as DNA vectors, GFP transfection of HEK293 cells; assay type: cell-based; conditions: HEK293 cells; lipid/DOPE liposome with 75 ng plasmid DNA (psin-EGFP-IRES-Puro); number of cells expressing GFP divided by total number of nuclei (Hoechst)
Method in brief: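 HEK293 cells in DMEM/10% FBS transfected with 75 ng EGFP plasmid per well complexed with amino lipid/DOPE liposomes in pH 5.6 sodium acetate. Hoechst nuclear stain added 20-24 h post-transfection, then cells cultured another 20-24 h. Confocal imaging gives GFP-positive cells as % of total nuclei.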

HEK293 cells [2] = assay: Preliminary screening as mRNA vectors, EGFP mRNA transfection of HEK293 cells; assay type: cell-based; conditions: HEK293 cells, 96-well plates, EGFP mRNA 50 ng per well; percentage of GFP fluorescent cells relative to total number of cells (Hoechst)
Method in brief: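 HEK293 cells in DMEM plus 10% FBS transfected in 96-well format with 50 ng EGFP mRNA per well; Lipofectamine2000 served as positive control. Read-out is the percentage of GFP-fluorescent cells among total cells, counted by Hoechst nuclear stain.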

Row | SMILES | Absolute DNA transfection efficiency in HEK293 cells (HEK293 cells [1]) | Absolute mRNA transfection efficiency in HEK293 cells (HEK293 cells [2])
1 | CCCCCCCCCCCCNc1nc(NCCCCCC)nc(NCCN2CCN(C)CC2)n1 [Compound N6N12D5] | 0.1% | 0.0%
2 | CCCCCCCCCCCCCCCCCCSc1nc(NCCN(CC)CC)nc(SCCCCCCCCCCCC)n1 [Compound S12S18D7] | 0.7% | 0.0%
3 | CCCCCCCNc1nc(NCCCCCCC)nc(NCCN2CCCCC2)n1 [Compound N7N7D4] | 0.0% | 0.0%
4 | CCCCCCCCNc1nc(NCCCCCCCC)nc(NCCN(CC)CC)n1 [Compound N8N8D7] | 0.0% | 0.0%
5 | CCCCCCCCCCCCCNc1nc(NCCCCCCCCC)nc(NCCCN(C)C)n1 [Compound N9N13D6] | 0.0% | 0.4%
6 | CCCCCCCCCCCCCNc1nc(NCCCCCCCCCCC)nc(NCCCN2CCOCC2)n1 [Compound N11N13D8] | 0.0% | 0.6%
7 | CCCCCCCCCCCCCCCCCCSc1nc(NCCN2CCCCC2)nc(SCCCCCCCCCCC)n1 [Compound S11S18D4] | 3.3% | 1.4%
8 | CCCCCCCCCCCCCNc1nc(NCCCCCCCCCCC)nc(NCCN2CCCC2)n1 [Compound N11N13D3] | 0.0% | 3.6%
9 | CCCCCCCCCCCCCCCCCCNc1nc(NCCCCCCCCCCCCC)nc(NCCN2CCCCC2)n1 [Compound N13N18D4] | 1.8% | 3.1%
10 | CCCCCCCCCCCCCCCCNc1nc(NCCCCCCCCCCCCC)nc(NCCN(C)C)n1 [Compound N13N16D1] | 0.8% | 1.5%
11 | CCCCCCCCCCCCCCSc1nc(NCCN2CCN(C)CC2)nc(SCCCCCCCCCCCCCC)n1 [Compound S14S14D5] | 0.0% | 0.0%
12 | CCCCCCCCCCCCCCCCNc1nc(NCCCCCCCCCCC)nc(NCCN2CCCCC2)n1 [Compound N11N16D4] | 0.1% | 0.0%
13 | CCCCCCCCCCCCCCCCCCNc1nc(NCCCCCC)nc(NCCN2CCCC2)n1 [Compound N6N18D3] | 3.4% | 3.9%
14 | CCCCCCCCCCCCCCCCCCSc1nc(NCCCN2CCOCC2)nc(SCCCCCCCCCCCCCCCCCC)n1 [Compound S18S18D8] | 0.0% | 0.0%
15 | CCCCCCCCCCCNc1nc(NCCCCCC)nc(NCCN2CCN(C)CC2)n1 [Compound N6N11D5] | 0.1% | 0.5%
16 | CCCCCCCCCCCCCCCCNc1nc(NCCCCCCCCC)nc(NCCN2CCN(C)CC2)n1 [Compound N9N16D5] | 0.0% | 0.0%
17 | CCCCCCCCCCCCCCCCCCSc1nc(NCCN2CCCC2)nc(SCCCCCCCCCCC)n1 [Compound S11S18D3] | 4.8% | 11.6%
18 | CCCCCCCCCCCCNc1nc(NCCCCCCC)nc(NCCCN(C)C)n1 [Compound N7N12D6] | 0.4% | 0.2%
19 | CCCCCCCCCCSc1nc(NCCN2CCOCC2)nc(SCCCCCCCCC)n1 [Compound S9S10D2] | 10.7% | 2.5%
20 | CCCCCCCCCCCCCCCNc1nc(NCCN2CCOCC2)nc(N(CCCCCCCCCCCC)CCCCCCCCCCCC)n1 [N15^2N12D2] | 0.5% | 0.0%
21 | CCCCCCCCCCCCCCCSc1nc(NCCCN2CCOCC2)nc(SCCCCCCCCCCC)n1 [Compound S11S15D8] | 3.0% | 2.1%
22 | CCCCCCCCCCCCCCCCNc1nc(NCCCCCCCC)nc(NCCN2CCCCC2)n1 [Compound N8N16D4] | 5.3% | 2.3%
23 | CCCCCCCCCCCCCCSc1nc(NCCN2CCCC2)nc(SCCCCCCCCCCC)n1 [Compound S11S14D3] | 6.7% | 17.9%
24 | CCCCCCNc1nc(NCCCCCC)nc(NCCN2CCCC2)n1 [Compound N6N6D3] | 0.2% | 0.3%

Row | SMILES | Absolute DNA transfection efficiency in HEK293 cells (HEK293 cells [1]) | Absolute mRNA transfection efficiency in HEK293 cells (HEK293 cells [2])
25 | CCCCCCCCCCCCCCSc1nc(NCCN2CCCC2)nc(SCCCCCCCCCCCC)n1 [Compound S12S14D3] | 6.5% | 6.3%
26 | CCCCCCCCCCCCNc1nc(NCCCN(C)C)nc(N(CCCCCCCCCCCC)CCCCCCCCCCCC)n1 [N12^2N12D6] | 3.6% | 1.2%
27 | CCCCCCCCCCSc1nc(NCCN2CCN(C)CC2)nc(SCCCCCCCCCC)n1 [Compound S10S10D5] | 14.7% | 45.9%
28 | CCCCCCCCCCCCCNc1nc(NCCCN2CCN(C)CC2)nc(N(CCCCCCCCCCCC)CCCCCCCCCCCC)n1 [N13^2N12D9] | 1.7% | 2.3%
29 | CCCCCCCCCCCCCCCCCCNc1nc(NCCCCCCCC)nc(NCCN(C)C)n1 [Compound N8N18D1] | 1.8% | 6.4%
30 | CCCCCCCCCCCCCCCCNc1nc(NCCCCCCCCCCC)nc(NCCN2CCN(C)CC2)n1 [Compound N11N16D5] | 0.0% | 2.5%
31 | CCCCCCCCCCCCNc1nc(NCCCCCCCCC)nc(NCCCN(C)C)n1 [Compound N9N12D6] | 0.0% | 0.2%
32 | CCCCCCCCCCCCNc1nc(NCCCCCCCC)nc(NCC2CCN(C)CC2)n1 [Compound N8N12D10] | 0.7% | 2.3%
33 | CCCCCCCCCCCCCCCCCCSc1nc(NCCCN2CCOCC2)nc(SCCCCCCCCCCC)n1 [Compound S11S18D8] | 7.8% | 3.3%
34 | CCCCCCCCCCCCCNc1nc(NCCCCCCCC)nc(NCCN(C)C)n1 [Compound N8N13D1] | 2.2% | 0.0%
35 | CCCCCCCCCCCCCCCCNc1nc(NCCN(C)C)nc(N(CCCCCCCCCCCC)CCCCCCCCCCCC)n1 [N16^2N12D1] | 0.0% | 3.4%
36 | CCCCCCCCCCCCCCCSc1nc(NCCN2CCOCC2)nc(SCCCCCCCCCC)n1 [Compound S10S15D2] | 7.7% | 0.7%
37 | CCCCCCCCCCCCCCCCNc1nc(NCCN2CCCCC2)nc(N(CCCCCCCCCCCC)CCCCCCCCCCCC)n1 [N16^2N12D4] | 3.2% | 0.0%
38 | CCCCCCCCCCCCCCCSc1nc(NCCCN(C)C)nc(SCCCCCCCCCCCC)n1 [Compound S12S15D6] | 4.4% | 0.0%
39 | CCCCCCCCCCCCCNc1nc(NCCCCCCCC)nc(NCCN2CCCC2)n1 [Compound N8N13D3] | 0.9% | 2.7%
40 | CCCCCCCCCCCCCCCCCCSc1nc(NCCCN2CCN(C)CC2)nc(SCCCCCCCCCC)n1 [Compound S10S18D9] | 6.5% | 2.4%
41 | CCCCCCCCCCCCCCCCNc1nc(NCCN(CC)CC)nc(N(CCCCCCCCCCCC)CCCCCCCCCCCC)n1 [N16^2N12D7] | 1.1% | 3.0%
42 | CCCCCCCCCCCCCCCCCCSc1nc(NCCN(C)C)nc(SCCCCCCCCCCC)n1 [Compound S11S18D1] | 0.6% | 2.7%
43 | CCCCCCCCCCCCCNc1nc(NCCCCCC)nc(NCCN(CC)CC)n1 [Compound N6N13D7] | 0.1% | 0.9%
44 | CCCCCCCCCCCCCCCNc1nc(NCCN2CCCCC2)nc(N(CCCCCCCCCCCC)CCCCCCCCCCCC)n1 [N15^2N12D4] | 2.1% | 2.9%
45 | CCCCCCCCCCCCCCCCNc1nc(NCCCCCCC)nc(NCCCN2CCN(C)CC2)n1 [Compound N7N16D9] | 0.0% | 0.0%
46 | CCCCCCCCCCCCCCCCNc1nc(NCCCCCCCCCCCCC)nc(NCCN2CCCC2)n1 [Compound N13N16D3] | 0.4% | 1.6%
47 | CCCCCCCCCCCCCCCCCCNc1nc(NCCCCCCCCCCCC)nc(NCC2CCN(C)CC2)n1 [Compound N12N18D10] | 0.0% | 1.0%
